Measurements: article PMC10856454, “Discovery of Novel Antitumor Small-Molecule Agent with Dual Action of CDK2/p-RB and MDM2/p53” (Molecules, 2024)

Assays:
CDK6 = target: T1, CDK6 (Homo sapiens, UniProt Q00534); assay: Kinase antagonist activity assay (TR-FRET), CDK6; assay type: biochemical
T1 construct: purchased Thermo Fisher Scientific
Experimental: (§1) The compounds were solubilized with DMSO (Solarbio Life Sciences, Beijing, China), and 11 concentrations were serially diluted at 3-fold; 100 nL of compound was added to 384-well plates, 5 μL of 2 × enzyme mixture (Thermo Fisher Scientific, Waltham, MA, USA) was added, and 5 μL of buffer was added instead of the complete inhibition control wells. Then, 1000 rpm centrifugation was performed for 30 s followed by a 15 min incubation at 23 °C. Next, 5 μL of 2 × MLight-MBP peptide (PerkinElmer, Waltham, MA, USA) was added to each well, with 1000 rpm centrifugation for 30 s and incubation at 23 °C for 90 min. At the end of the incubation, the reaction was terminated with buffer containing 15 mM EDTA and 2 nM Eu-anti-P-MBP antibody (PerkinElmer, Waltham, MA, USA), centrifuged at 1000 rpm for 1 min, and incubated at 23 °C for 60 min; the plates were read on a Perkin Elmer Envision ([…]).

[1] = test system: p-Rb, p-CDK2, MDM2, p53 in OVCAR3 cells; assay: Western blot of CDK2 pathway, MDM2 and p53 proteins in OVCAR3 cells; assay type: cell-based
Experimental: (§2) Total protein from HCT116, OVCAR3 cells and tissues was collected and homogenized in RIPA buffer. The total cellular protein extract was electrophoresed on 12% SDS-polyacrylamide gels and then transferred to a PVDF membrane (Thermo Fisher Scientific, Waltham, MA, USA). Primary antibodies were incubated overnight at 4 °C and secondary antibodies were incubated at room temperature for 1.5 h. Imaging was performed using Image Quant LAS4000 (GE, Boston, MA, USA).

OVCAR3 cells [2] = assay: Cell scratch test (migration), OVCAR3; assay type: cell-based; details: 24 h
Experimental: (§3) Cells were inoculated into six-well plates as long as they spread to the bottom of the wells after wall attachment. After 24 h of wall attachment, cells were scratched with a 200 μL pipette tip and then replaced with low serum medium (1% FBS) containing different concentrations of compounds. Spot photographs were taken at 0 h and 24 h after the scratch was made. Data analysis was performed using Adobe Photoshop 2021 (Adobe Systems Software Ireland Ltd., San Jose, CA, USA) and Image J2 (National Institutes of Health, Bethesda, MD, USA).

CDK2 = target: T2, CDK2 (Homo sapiens, UniProt P24941); assay: Kinase antagonist activity assay (TR-FRET), CDK2; assay type: biochemical
T2 construct: purchased Thermo Fisher Scientific
Experimental: as §1

CDK4 = target: T3, CDK4 (Homo sapiens, UniProt P11802); assay: Kinase antagonist activity assay (TR-FRET), CDK4; assay type: biochemical
T3 construct: purchased Thermo Fisher Scientific
T3 sequence (P11802 whole entry): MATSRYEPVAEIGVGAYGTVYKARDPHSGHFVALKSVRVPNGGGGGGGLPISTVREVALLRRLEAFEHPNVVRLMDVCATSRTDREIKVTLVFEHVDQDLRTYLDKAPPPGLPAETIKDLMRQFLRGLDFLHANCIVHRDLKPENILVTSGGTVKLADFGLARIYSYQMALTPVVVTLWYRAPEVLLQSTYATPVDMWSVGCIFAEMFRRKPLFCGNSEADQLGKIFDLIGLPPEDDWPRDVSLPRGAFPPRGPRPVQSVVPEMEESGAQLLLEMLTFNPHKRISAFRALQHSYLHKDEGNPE
T3 sequence (P24385 whole entry partner): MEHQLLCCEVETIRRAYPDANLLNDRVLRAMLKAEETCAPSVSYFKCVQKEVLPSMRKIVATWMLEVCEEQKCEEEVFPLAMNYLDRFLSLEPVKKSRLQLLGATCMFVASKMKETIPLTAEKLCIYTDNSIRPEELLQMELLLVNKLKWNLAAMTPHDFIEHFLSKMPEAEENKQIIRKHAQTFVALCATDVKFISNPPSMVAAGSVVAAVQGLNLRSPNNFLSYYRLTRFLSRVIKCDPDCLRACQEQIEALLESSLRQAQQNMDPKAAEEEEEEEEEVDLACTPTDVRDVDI
Experimental: as §1

HCT116 cells [3] = assay: Cell scratch test (migration), HCT116; assay type: cell-based; details: 24 h
Experimental: as §3

[4] = test system: p-Rb, p-CDK2 in HCT116 cells; assay: Western blot of CDK2 pathway proteins in HCT116 cells; assay type: cell-based
Experimental: as §2

[5] = Liver microsomal stability, human; assay type: in vitro ADME; details: Human liver microsomes
Experimental: (§4) Compounds were incubated with mouse, rat, and human liver microsomal samples and NADPH at 37 °C for 5, 10, 20, 30, or 60 min. The reaction was terminated with a cold acetonitrile solution containing tolbutamide. Compound retention was determined by LC-MS/MS. The retention times, chromatographic acquisition, and chromatographic integration of compounds and positive control substances were analyzed using Analyst (AB Sciex, Framingham, MA, USA).

OVCAR3 cells [6] = assay: Cell cycle detection by flow cytometry, OVCAR3; assay type: cell-based; details: 24 h
Experimental: (§5) Cells were plated at 300,000 cells overnight in six-well plates. III-13 was added in a dose-dependent fashion and then cells were incubated for 24 h. The cells were then fixed with 75% ethanol overnight at 4 °C. The cells were centrifuged, and ethanol was removed. The cells were washed twice with 1 × PBS following staining with DAPI (4′, 6′ diamino-2-phenylindole) and analyzed using Guava easyCyte HT (Merck KGaA, Darmstadt, Germany) with a blue filter. Experiments were performed in triplicate.

HCT116 cells [7] = assay: Cell cycle detection by flow cytometry, HCT116; assay type: cell-based; details: 24 h
Experimental: as §5

[8] = Caco-2 permeability and transporter substrate evaluation; assay type: in vitro ADME; details: human, Caco-2, 2 μM
Experimental: Caco-2 cells were cultured in MEM with 20% FBS, penicillin (100 U/mL), and streptomycin (100 μg/mL) at 37 °C in 95% air and 5% CO2. Cells were seeded into 96-well cell plates and cultured continuously for 24 days for subsequent experiments. […] After 120 min of incubation, samples were collected from the apical and basal ends. The […] content of each sample was determined by liquid chromatography–tandem mass spectrometry (LC-MS/MS). The apparent […] coefficient and efflux ratio were calculated.

[9] = Liver microsomal stability, rat; assay type: in vitro ADME; details: Rat liver microsomes
Experimental: as §4

OVCAR3 cells [10] = assay: Colony formation, OVCAR3; assay type: cell-based; details: 14 days
Experimental: Cells were inoculated in six-well plates at 1000 cells per well, and III-13 was added in a dose-dependent manner after 24 h. Cells were stained with Crystal Violet Staining Solution (Beyotime, Shanghai, China) at 14 days after incubation, and the cell colonies were counted using Image J.

CDK1 = target: T4, CDK1 (Homo sapiens, UniProt P06493); assay: Kinase antagonist activity assay (TR-FRET), CDK1; assay type: biochemical
T4 construct: purchased Thermo Fisher Scientific
T4 sequence (P06493 whole entry): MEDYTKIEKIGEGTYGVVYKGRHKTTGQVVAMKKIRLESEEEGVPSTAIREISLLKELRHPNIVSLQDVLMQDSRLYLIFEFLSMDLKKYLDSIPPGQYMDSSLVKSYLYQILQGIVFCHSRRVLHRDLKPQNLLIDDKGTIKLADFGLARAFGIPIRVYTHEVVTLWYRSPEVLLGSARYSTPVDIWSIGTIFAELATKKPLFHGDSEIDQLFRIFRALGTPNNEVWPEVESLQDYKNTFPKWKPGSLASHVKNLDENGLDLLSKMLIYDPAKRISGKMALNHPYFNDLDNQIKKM
T4 sequence (P14635 whole entry partner): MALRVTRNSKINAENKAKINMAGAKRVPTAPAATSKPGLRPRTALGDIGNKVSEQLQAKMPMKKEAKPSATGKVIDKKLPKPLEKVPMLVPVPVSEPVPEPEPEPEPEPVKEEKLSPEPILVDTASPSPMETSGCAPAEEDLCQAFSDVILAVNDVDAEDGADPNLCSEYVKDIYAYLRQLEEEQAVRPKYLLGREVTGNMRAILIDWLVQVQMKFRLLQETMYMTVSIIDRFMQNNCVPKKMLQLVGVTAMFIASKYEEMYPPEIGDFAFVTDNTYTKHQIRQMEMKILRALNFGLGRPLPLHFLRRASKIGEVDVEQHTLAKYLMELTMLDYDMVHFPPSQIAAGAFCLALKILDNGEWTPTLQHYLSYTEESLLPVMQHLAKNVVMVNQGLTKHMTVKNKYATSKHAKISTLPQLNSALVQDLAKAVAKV
Experimental: as §1

[11] = test system: HCT116 transplanted tumor; assay: Tumor xenograft experiment, nude mouse model of HCT116 transplanted tumor; assay type: in vivo, Balb/c nude mice
Experimental: HCT116 cells (1 × 10^6) were implanted into the back of adult male Balb/c nude mice by subcutaneous injection. […] The solvent or drug containing solution was administered daily to the vehicle and dosing groups by intraperitoneal injection (0.2 mL/20 g). Tumor growth was measured every three days during treatment. At the end of the treatment, the mice were killed, and the tumors were removed and weighed.

[12] = 50 mg/kg, intraperitoneal daily, 14 days

T1 sequence (Q00534 whole entry): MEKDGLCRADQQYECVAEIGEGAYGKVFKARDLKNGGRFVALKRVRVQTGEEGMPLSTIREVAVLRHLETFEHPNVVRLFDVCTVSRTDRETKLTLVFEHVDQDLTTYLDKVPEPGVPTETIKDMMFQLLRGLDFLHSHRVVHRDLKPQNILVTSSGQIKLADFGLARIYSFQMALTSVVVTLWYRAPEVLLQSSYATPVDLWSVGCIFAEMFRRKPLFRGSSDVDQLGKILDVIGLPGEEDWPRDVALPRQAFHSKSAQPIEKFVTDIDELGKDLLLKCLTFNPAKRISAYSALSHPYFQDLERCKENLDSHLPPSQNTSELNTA
T1 sequence (P24385 whole entry partner): as the sequence (P24385 whole entry partner) above

## CC1(C)CCN1C(=O)O[C@@H]1CC[C@H](c2cc(NC(=O)Cc3ccc(N4CCCC4=O)cc3)n[nH]2)C1 [III-13]
CDK6
  IC50: 1.3 µM
  IC90: 16 µM
[1]
  MDM2 protein expression: inhibited
  p53 expression: significantly elevated
[1]; OVCAR3 cells
  expression of p-Rb: significantly reduced
  p-CDK2 expression: no significant effect
OVCAR3 cells [2]
  migration rate: decreased significantly
CDK2
  IC50: 0.0026 µM
  IC90: 0.0262 µM
CDK4
  IC50: 6.24 µM
  IC90: 23.1 µM
HCT116 cells [3]
  migration rate: decreased significantly
[4]
  expression of p-Rb: significantly reduced
  p-CDK2 expression: no significant effect
[5]
  CLint scaled: 59.9 mL/min/kg
[5]; 60 min
  Remaining (T = 60 min): 15.4%
[5]; NADPH, 37 °C
  half-life: 21.9 min
OVCAR3 cells [6]
  cell cycle arrest: arrested HCT116 and OVCAR3 cells in the G0/G1 phase
HCT116 cells [7]
  cell cycle arrest: arrested HCT116 and OVCAR3 cells in the G0/G1 phase
[8]
  Papp A→B at 120 min, 2 µM: 1.6 ×10⁻⁶ cm/s
  Papp B→A at 120 min, 2 µM: 8.56 ×10⁻⁶ cm/s
  efflux ratio at 120 min, 2 µM: 5.34
[9]
  CLint scaled: 88.9 mL/min/kg
[9]; 60 min
  Remaining (T = 60 min): 22.8%
[9]; NADPH, 37 °C
  half-life: 28.1 min
OVCAR3 cells [10]
  number of colonies: significant reduction
CDK1
  IC50: 0.528 µM
  IC90: 5.64 µM
[11]; [12]
  tumor volume reduced by: ~69.81%
  tumor weight reduced by: ~60.16%
[11]; 14 days of treatment
  weight loss in mice: did not cause significant weight loss
[11]; both 25 and 50 mg/kg, intraperitoneal daily, 14 days
  tumor volume: significantly reduced
